Measured values as given in ChEMBL document CHEMBL3045110, “Synthesis and antibacterial evaluation of 6-azapyrimidines with -methylene--(4-substituted phenyl)--butyrolactone pharmacophores” (2011).
In brackets after ≈: the same amount, converted by molar mass.

How the values were obtained:
Type in all cases: functional
Proteus vulgaris = experiment: Antibacterial activity against Proteus vulgaris ATCC 13315 after 20 to 22 hr by agar dilution method
Micrococcus = experiment: Antibacterial activity against Micrococcus […] ATCC 9341 after 20 to 22 hr by agar dilution method
Staphylococcus aureus = experiment: Antibacterial activity against Staphylococcus aureus ATCC 25923 after 20 to 22 hr by agar dilution method
[1] = test system: Staphylococcus epidermidis; experiment: Antibacterial activity against Staphylococcus epidermidis ATCC 12228 after 20 to 22 hr by agar dilution method
[2] = test system: Bordetella bronchiseptica; experiment: Antibacterial activity against Bordetella bronchiseptica ATCC 4617 after 20 to 22 hr by agar dilution method
Bacillus subtilis = experiment: Antibacterial activity against Bacillus subtilis ATCC 6633 after 20 to 22 hr by agar dilution method
Bacillus cereus = experiment: Antibacterial activity against Bacillus cereus ATCC 11778 after 20 to 22 hr by agar dilution method

Structure (SMILES)	MIC (Proteus vulgaris) [µg/mL]	MIC (Micrococcus) [µg/mL]	MIC (Staphylococcus aureus) [µg/mL]	MIC [1] [µg/mL]	MIC [2] [µg/mL]	MIC (Bacillus subtilis) [µg/mL]	MIC (Bacillus cereus) [µg/mL]
C=C1CC(Cn2ncc(=O)[nH]c2=O)(c2ccccc2)OC1=O (stereo unspecified)	5 (≈ 16.7 µM)	> 100	> 100	> 100	> 100	> 100	> 100
C=C1CC(Cn2ncc(=O)[nH]c2=O)(c2ccc(F)cc2)OC1=O (stereo unspecified)	50 (≈ 158 µM)	> 100	> 100	> 100	> 100	> 100	50 (≈ 158 µM)
C=C1CC(Cn2ncc(=O)[nH]c2=O)(c2ccc(-c3ccccc3)cc2)OC1=O (stereo unspecified)	25 (≈ 66.6 µM)	> 100	> 100	> 100	> 100	> 100	50 (≈ 133 µM)
C=C1CC(Cn2nc(C)c(=O)[nH]c2=O)(c2ccccc2)OC1=O (stereo unspecified)	> 100	> 100	> 100	> 100	> 100	> 100	> 100
C=C1CC(Cn2nc(C)c(=O)[nH]c2=O)(c2ccc(F)cc2)OC1=O (stereo unspecified)	> 100	> 100	> 100	> 100	> 100	> 100	50 (≈ 151 µM)
C=C1CC(Cn2nc(C)c(=O)[nH]c2=O)(c2ccc(-c3ccccc3)cc2)OC1=O (stereo unspecified)	> 100	> 100	> 100	25 (≈ 64.2 µM)	50 (≈ 128 µM)	25 (≈ 64.2 µM)	> 100
C=C1CC(Cn2ncc(=O)n(CC3(c4ccccc4)CC(=C)C(=O)O3)c2=O)(c2ccccc2)OC1=O (stereo unspecified)	> 100	> 100	> 100	> 100	> 100	> 100	> 100
C=C1CC(Cn2ncc(=O)n(CC3(c4ccc(F)cc4)CC(=C)C(=O)O3)c2=O)(c2ccc(F)cc2)OC1=O (stereo unspecified)	> 100	> 100	> 100	> 100	> 100	> 100	10 (≈ 19.2 µM)
C=C1CC(Cn2ncc(=O)n(CC3(c4ccc(-c5ccccc5)cc4)CC(=C)C(=O)O3)c2=O)(c2ccc(-c3ccccc3)cc2)OC1=O (stereo unspecified)	25 (≈ 39.2 µM)	50 (≈ 78.4 µM)	50 (≈ 78.4 µM)	10 (≈ 15.7 µM)	25 (≈ 39.2 µM)	10 (≈ 15.7 µM)	25 (≈ 39.2 µM)
C=C1CC(Cn2nc(C)c(=O)n(CC3(c4ccccc4)CC(=C)C(=O)O3)c2=O)(c2ccccc2)OC1=O (stereo unspecified)	> 100	> 100	> 100	> 100	> 100	> 100	> 100
C=C1CC(Cn2nc(C)c(=O)n(CC3(c4ccc(F)cc4)CC(=C)C(=O)O3)c2=O)(c2ccc(F)cc2)OC1=O (stereo unspecified)	> 100	25 (≈ 46.7 µM)	> 100	> 100	> 100	> 100	25 (≈ 46.7 µM)
C=C1CC(Cn2nc(C)c(=O)n(CC3(c4ccc(-c5ccccc5)cc4)CC(=C)C(=O)O3)c2=O)(c2ccc(-c3ccccc3)cc2)OC1=O (stereo unspecified)	> 100	> 100	> 100	> 100	> 100	> 100	25 (≈ 38.4 µM)
O=c1cn[nH]c(=O)[nH]1 [6-AZAURACIL]	> 100	> 100	> 100	> 100	> 100	> 100	> 100
